Some results are limits rather than exact numbers.

Common to all, as to conditions: ATP=10 uM, sample concentration=100 nM
Assay [1] concerns the target T1, PI3 Kinase (p110α/p85α) (h) (Homo sapiens, UniProt P42336).
T1 construct: endogenous in cells; host or cells: MDA-MB-453
The experiment in a line: Inhibition of phosphatidylinositol 3-kinase alpha (PI3K α), pAkt Western blotting in EGF-stimulated MDA-MB-453 cells. It is filed as cell-based. How it is done:
The inhibition of phosphatidylinositol 3 kinase alpha (PI3K α) by those compounds prepared in Examples 1˜98 was investigated by the following experiment. The inhibition activity of each compound was measured in the following conditions: ATP=10 uM, and sample concentration=100 nM.
Human breast cancer cells (MDA-MB-453) cultured in DMEM (Dulbecco's Modified Eagle Medium, Hyclon, SH30243.01) supplemented with 10% fetal bovine serum (Hyclon, USA) were distributed in a 12-well plate at the density of 1,000,000 cells/well. The cells were stabilized in a 37° C. CO2 for 24 hours and then treated with each compound for 1 and half hours. The cells were treated with 10 ng/mL of EGF (Epidermal Growth Factor, 10 μg/mL; R&D, 2150-C5) to increase the intracellular activity of PI3K alpha. 5 minutes later, the medium was discarded and the cells were washed with cold PBS (phosphate buffered saline, Gibco, 14190-250). PBS was then eliminated completely by using a pipette. Western blotting was performed as described in step 2 to evaluate the intracellular PI3K alpha activity.
(§1) The stimulated cells were transferred in a 1.5 mL tube, followed by centrifugation at 3000 rpm for 1 minute. 100 μL of RIPA buffer (radioimmunoprecipitation assay buffer, 50 mM Tris-HCl, 5 mM EDTA, 150 mM NaCl, 1% NP-40, 1 mM PMSF, pH 8.0; ELPIS, Korea) was added thereto, which was stored in a 4° C. refrigerator for 12 hours. Centrifugation was performed at 4° C. at 14,000 rpm for 20 minutes. The supernatant was transferred into a new 1.5 mL tube. Protein was quantified by BCA (bicinchoninic acid) method and samples were prepared. The composition of the sample was as follows: sample buffer (ELPIS, EBA-1052) 5×, protein 10 μg, and 1× sample buffer to make the total volume 20 μL. The sample was heated at 100° C. for 5 minutes. The evaporated water vapor was condensed in a refrigerator. The liquid stained on the wall was fallen down by centrifugation for a few seconds. The sample proceeded to 10% SDS (Sodium Dodecyl Sulfate) acrylamide gel for separation. The separated protein was transferred onto PVDF (poly-vinyl difluoride) membrane, followed by reaction with pAkt (phospho protein kinase B) antibody (Ser473 or Thr308; Cell signaling, 9271s or 13038s) for 12 hours at 4° C. The membrane was washed with TBST (Tris-Buffered Saline with Tween 20, 10 mM Tris-HCl, pH 7.5, 150 mM NaCl, 0.1% Tween-20) three times for 5 minutes each, to which the secondary antibody (rabbit antibody, Santacruz, sc-2004) was added, followed by reaction at room temperature for 2 hours. The membrane was washed with TBST three times for 10 minutes each, to which ECL (enhanced chemiluminescence, Thermo, NCI34095KR) was sprayed. Bands were investigated by using LAS-3000.

Assay [2] concerns the target T2, PI3 Kinase (p110δ/p85α) (h) (Homo sapiens, UniProt O00329).
T2 construct: endogenous in cells; host or cells: Raji
The experiment in a line: Inhibition of phosphatidylinositol 3-kinase delta (PI3K δ), pAkt Western blotting in IgM-stimulated Raji cells. It is filed as cell-based. The method in brief:
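Raji cells were treated with compound for 1.5 h, then stimulated with 0.25 μg/mL IgM for 30 min to activate PI3Kδ. Lysates were Western blotted for pAkt (Ser473 or Thr308) with ECL detection. Conditions stated: ATP=10 uM, sample concentration=100 nM.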

In a further assay the target is T3, PI3 Kinase (p120γ) (h) (Homo sapiens, UniProt P48736).
T3 construct: endogenous in cells; host or cells: RAW264.7
The experiment in a line: Inhibition of phosphatidylinositol 3-kinase gamma (PI3K γ), pAkt Western blotting in C5a-stimulated RAW264.7 macrophages. Format: cell-based, mouse. The method in brief: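 Enzyme: PI3Kγ activity measured at ATP=10 uM with compound at 100 nM. Cellular: RAW264.7 macrophages treated with compound 1.5 h, then stimulated with 10 ng/mL C5a for 5 min; lysates (10 μg protein) probed by Western blot for pAkt (Ser473 or Thr308), ECL detection.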

The target in assay [3] is T4, PI3 Kinase (p110β/p86α) (h) (Homo sapiens, UniProt P42338).
T4 construct: endogenous in cells; host or cells: PC3
T4 sequence (P42338 whole entry): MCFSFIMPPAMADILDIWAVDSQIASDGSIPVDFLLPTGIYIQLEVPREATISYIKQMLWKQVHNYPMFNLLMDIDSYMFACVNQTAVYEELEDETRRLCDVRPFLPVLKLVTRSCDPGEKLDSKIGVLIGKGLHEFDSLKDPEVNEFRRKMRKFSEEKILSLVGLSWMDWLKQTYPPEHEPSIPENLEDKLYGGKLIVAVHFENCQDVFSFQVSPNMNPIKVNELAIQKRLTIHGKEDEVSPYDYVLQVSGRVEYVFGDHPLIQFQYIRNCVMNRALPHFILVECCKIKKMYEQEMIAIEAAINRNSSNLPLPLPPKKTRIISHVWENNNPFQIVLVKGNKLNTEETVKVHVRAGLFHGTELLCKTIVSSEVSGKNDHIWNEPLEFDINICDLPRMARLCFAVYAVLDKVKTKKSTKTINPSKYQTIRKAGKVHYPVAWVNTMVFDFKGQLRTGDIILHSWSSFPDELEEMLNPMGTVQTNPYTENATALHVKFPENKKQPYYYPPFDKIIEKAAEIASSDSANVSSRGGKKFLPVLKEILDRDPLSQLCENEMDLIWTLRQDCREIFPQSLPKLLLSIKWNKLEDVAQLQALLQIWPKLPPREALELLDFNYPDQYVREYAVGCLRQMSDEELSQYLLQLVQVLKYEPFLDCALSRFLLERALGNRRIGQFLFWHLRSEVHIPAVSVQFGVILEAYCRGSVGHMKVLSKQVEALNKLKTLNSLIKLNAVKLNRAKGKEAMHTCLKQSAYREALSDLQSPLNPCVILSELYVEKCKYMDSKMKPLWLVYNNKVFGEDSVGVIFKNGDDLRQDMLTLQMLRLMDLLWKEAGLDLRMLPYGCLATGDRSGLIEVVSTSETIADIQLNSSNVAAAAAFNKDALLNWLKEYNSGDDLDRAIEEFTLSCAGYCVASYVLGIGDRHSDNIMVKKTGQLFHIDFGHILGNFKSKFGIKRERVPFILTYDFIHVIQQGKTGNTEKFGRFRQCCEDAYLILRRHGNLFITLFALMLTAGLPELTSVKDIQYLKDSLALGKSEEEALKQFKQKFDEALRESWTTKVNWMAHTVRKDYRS
T4 sequence (P27986 whole entry partner): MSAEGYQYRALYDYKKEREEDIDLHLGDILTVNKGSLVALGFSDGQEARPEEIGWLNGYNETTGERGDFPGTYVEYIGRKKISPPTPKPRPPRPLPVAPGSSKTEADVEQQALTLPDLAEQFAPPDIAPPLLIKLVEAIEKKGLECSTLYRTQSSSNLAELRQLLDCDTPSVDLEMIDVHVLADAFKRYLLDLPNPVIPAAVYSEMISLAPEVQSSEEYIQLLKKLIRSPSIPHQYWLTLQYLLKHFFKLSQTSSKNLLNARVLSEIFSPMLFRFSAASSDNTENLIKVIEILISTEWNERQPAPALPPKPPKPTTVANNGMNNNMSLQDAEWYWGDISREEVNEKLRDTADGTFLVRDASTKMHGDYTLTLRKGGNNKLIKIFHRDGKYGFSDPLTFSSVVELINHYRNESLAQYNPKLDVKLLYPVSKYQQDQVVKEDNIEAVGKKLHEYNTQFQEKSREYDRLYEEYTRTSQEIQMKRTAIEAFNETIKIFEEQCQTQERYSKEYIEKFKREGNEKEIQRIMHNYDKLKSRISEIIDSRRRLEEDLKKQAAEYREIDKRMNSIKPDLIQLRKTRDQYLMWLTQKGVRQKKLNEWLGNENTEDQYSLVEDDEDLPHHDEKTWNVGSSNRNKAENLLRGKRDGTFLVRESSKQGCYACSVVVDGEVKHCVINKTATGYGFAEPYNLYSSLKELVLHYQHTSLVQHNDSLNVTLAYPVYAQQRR
The experiment in a line: Inhibition of phosphatidylinositol 3-kinase beta (PI3K β), pAkt Western blotting in LPA-stimulated PC3 cells. It is filed as cell-based. As for the experimental part:
as §1
The inhibition of phosphatidylinositol 3 kinase beta (PI3K β) by those compounds prepared in Examples 1˜98 was investigated by the following experiment. The inhibition activity of each compound was measured in the following conditions: ATP=10 uM, and sample concentration=100 nM.
Human prostate cancer cells (PC3 cells) cultured in DMEM (Dulbecco's Modified Eagle Medium, Hyclon, SH30243.01) supplemented with 10% fetal bovine serum (Hyclon, USA) were distributed in a 12-well plate at the density of 1,000,000 cells/well. The cells were stabilized in a 37° C. CO2 for 24 hours and then treated with each compound for 1 and half hours. The cells were treated with 10 ng/mL of LPA (lysophosphatidic acid, 10 μg/mL; R&D, 2150-05) to increase the intracellular activity of PI3K beta. 5 minutes later, the medium was discarded and the cells were washed with cold PBS (phosphate buffered saline, Gibco, 14190-250). PBS was then eliminated completely by using a pipette. Western blotting was performed according to the same manner as described in step 2 of Experimental Example 1 to evaluate the intracellular PI3K beta activity.

T2 sequence (O00329 whole entry): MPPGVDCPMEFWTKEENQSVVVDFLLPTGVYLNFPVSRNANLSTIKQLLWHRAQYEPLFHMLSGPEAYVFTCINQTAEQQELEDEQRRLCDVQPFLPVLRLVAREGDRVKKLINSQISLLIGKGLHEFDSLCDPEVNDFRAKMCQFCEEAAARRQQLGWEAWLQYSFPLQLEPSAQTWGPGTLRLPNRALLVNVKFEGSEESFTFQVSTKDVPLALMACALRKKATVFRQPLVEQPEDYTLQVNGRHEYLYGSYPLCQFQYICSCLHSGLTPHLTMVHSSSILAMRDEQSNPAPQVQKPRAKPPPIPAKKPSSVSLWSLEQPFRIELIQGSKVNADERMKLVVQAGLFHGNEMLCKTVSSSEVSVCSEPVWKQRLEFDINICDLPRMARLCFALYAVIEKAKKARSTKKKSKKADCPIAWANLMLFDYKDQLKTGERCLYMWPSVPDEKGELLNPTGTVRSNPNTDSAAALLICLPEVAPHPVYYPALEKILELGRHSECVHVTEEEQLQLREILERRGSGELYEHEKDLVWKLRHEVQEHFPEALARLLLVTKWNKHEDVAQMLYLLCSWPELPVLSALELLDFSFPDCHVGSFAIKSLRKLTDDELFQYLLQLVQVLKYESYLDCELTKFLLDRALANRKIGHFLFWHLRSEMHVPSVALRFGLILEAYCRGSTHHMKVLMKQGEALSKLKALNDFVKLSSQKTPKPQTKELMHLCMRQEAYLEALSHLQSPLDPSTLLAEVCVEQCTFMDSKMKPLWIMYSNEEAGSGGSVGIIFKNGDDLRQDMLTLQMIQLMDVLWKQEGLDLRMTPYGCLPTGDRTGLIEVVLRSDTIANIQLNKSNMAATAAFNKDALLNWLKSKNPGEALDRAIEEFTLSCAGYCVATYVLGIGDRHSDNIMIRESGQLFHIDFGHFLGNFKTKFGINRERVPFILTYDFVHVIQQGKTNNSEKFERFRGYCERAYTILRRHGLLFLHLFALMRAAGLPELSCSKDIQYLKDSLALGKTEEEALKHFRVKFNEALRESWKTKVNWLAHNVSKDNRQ
T2 sequence (P27986 whole entry partner): as the sequence (P27986 whole entry partner) above
T1 sequence (P42336 whole entry): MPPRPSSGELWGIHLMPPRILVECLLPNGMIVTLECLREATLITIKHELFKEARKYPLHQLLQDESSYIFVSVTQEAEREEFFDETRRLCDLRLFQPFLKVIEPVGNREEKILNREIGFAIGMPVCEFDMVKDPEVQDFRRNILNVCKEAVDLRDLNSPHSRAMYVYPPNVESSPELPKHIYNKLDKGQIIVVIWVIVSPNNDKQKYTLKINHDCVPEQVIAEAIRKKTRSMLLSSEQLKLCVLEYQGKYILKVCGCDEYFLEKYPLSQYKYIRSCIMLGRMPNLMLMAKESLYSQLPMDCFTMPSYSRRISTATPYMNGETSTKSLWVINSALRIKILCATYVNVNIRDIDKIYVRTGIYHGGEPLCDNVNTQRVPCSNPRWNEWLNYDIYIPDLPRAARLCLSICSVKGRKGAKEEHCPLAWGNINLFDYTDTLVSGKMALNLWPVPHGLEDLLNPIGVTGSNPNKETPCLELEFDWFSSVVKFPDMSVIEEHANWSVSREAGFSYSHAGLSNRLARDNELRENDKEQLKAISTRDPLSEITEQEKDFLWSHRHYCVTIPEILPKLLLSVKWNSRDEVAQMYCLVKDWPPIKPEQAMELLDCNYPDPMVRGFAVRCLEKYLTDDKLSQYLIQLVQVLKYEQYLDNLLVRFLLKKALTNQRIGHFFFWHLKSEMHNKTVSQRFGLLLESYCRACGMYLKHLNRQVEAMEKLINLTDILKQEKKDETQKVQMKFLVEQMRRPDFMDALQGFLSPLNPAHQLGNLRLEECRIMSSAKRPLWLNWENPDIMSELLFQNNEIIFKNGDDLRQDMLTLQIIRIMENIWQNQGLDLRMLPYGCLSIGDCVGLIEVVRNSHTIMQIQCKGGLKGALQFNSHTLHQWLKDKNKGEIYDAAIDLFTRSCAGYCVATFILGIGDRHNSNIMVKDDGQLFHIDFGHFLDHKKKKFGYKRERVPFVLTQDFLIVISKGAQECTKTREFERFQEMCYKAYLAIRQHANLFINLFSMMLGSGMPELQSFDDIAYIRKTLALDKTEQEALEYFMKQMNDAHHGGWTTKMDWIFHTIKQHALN
T1 sequence (P27986 2-724 partner limits assumed): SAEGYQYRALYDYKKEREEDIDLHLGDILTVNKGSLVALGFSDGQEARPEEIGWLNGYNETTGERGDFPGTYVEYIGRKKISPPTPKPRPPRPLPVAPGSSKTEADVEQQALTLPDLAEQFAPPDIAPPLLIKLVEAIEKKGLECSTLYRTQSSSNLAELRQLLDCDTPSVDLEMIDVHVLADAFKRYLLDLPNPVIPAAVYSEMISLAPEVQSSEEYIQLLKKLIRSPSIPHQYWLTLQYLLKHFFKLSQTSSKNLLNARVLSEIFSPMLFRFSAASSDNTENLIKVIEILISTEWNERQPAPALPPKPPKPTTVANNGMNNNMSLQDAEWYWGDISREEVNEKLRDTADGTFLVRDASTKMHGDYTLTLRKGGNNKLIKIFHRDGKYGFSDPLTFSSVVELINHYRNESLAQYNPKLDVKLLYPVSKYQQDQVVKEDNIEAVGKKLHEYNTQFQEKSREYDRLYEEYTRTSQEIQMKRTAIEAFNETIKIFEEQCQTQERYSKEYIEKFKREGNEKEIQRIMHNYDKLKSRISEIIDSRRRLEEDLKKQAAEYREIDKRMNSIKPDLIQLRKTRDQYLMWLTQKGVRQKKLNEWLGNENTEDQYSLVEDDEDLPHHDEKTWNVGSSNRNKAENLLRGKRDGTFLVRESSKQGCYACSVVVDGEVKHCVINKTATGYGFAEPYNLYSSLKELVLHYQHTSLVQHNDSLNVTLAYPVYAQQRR

For `C[C@H](Nc1ncnc2[nH]ccc(=O)c12)c1nc2ccc(F)cc2c(=O)n1-c1ccccc1` [Example 29, (S)-4-((1-(6-fluoro-4-oxo-3-phenyl-3,4-dihydroquinazoline-2-yl)ethyl)amino)pyrido[2,3-d]pyrimidine-5(8H)-one], the IC50 in assay [1] was greater than 500 nM; in assay [2], less than 10 nM; against PI3 Kinase (p120γ) (h), 10 to 500 nM; in assay [3], greater than 500 nM.

Consider `C[C@H](Nc1ncnc2[nH]ccc(=O)c12)c1nc2ccc(F)cc2c(=O)n1-c1cccc(F)c1` [Example 30, (S)-4-((1-(6-fluoro-3-(3-fluorophenyl)-4-oxo-3,4-dihydroquinazoline-2-yl)ethyl)amino)pyrido[2,3-d]pyrimidine-5(8H)-one], for which the IC50 is greater than 500 nM in assay [1], less than 10 nM in assay [2], 10 to 500 nM at PI3 Kinase (p120γ) (h) and greater than 500 nM in assay [3].

Regarding `C[C@H](Nc1ncnc2[nH]ccc(=O)c12)c1nc2cccc(Cl)c2c(=O)n1Cc1ccccc1Cl` [Example 31, (S)-4-((1-(5-chloro-3-(2-chlorobenzyl)-4-oxo-3,4-dihydroquinazoline-2-yl)ethyl)amino)pyrido[2,3-d]pyrimidine-5(8H)-one], the IC50 is greater than 500 nM in assay [1], 10 to 500 nM in assay [2], greater than 500 nM at PI3 Kinase (p120γ) (h) and greater than 500 nM in assay [3].

Turning to `CC(Nc1ncnc2[nH]ccc(=O)c12)c1nc2cccc(Cl)c2cc1-c1ccccn1` (stereo not drawn) [Example 33, 4-((1-(5-chloro-3-(pyridine-2-yl)quinoline-2-yl)ethyl)amino)pyrido[2,3-d]pyrimidine-5(8H)-one], the half-maximal inhibitory concentration (IC50) in assay [1] is greater than 500 nM; in assay [2] it was less than 10 nM; on PI3 Kinase (p120γ) (h), 10 to 500 nM; in assay [3], greater than 500 nM.

Consider `C[C@H](Nc1ncnc2c1C(=O)N(C)CN2)c1cc2cccc(Cl)c2c(=O)n1-c1ccccc1` [Example 38, (S)-5-((1-(8-chloro-1-oxo-2-phenyl-1,2-dihydroisoquinoline-3-yl)ethyl)amino)-3-methyl-2,3-dihydropyrimido[4,5-d]pyrimidine-4(1H)-one], for which the IC50 in assay [1] was 10 to 500 nM; in assay [2], less than 10 nM; on PI3 Kinase (p120γ) (h) it was less than 10 nM; in assay [3], greater than 500 nM.

Regarding `C[C@H](Nc1ncnc2c1C(=O)N(C)CN2)c1c(Cl)c2cccc(Cl)c2c(=O)n1-c1ccccc1` [Example 40, (S)-5-((1-(4,8-dichloro-1-oxo-2-phenyl-1,2-dihydroisoquinoline-3-yl)ethyl)amino)-3-methyl-2,3-dihydropyrimido[4,5-d]pyrimidine-4(1H)-one], the IC50 in assay [1] was greater than 500 nM; in assay [2], less than 10 nM; against PI3 Kinase (p120γ) (h) it was 10 to 500 nM; in assay [3], greater than 500 nM.

For the molecule `CCN1CNc2ncnc(N[C@@H](C)c3cc4cccc(Cl)c4c(=O)n3-c3ccccc3)c2C1=O` [Example 60, (S)-5-(1-(8-chloro-1-oxo-2-phenyl-1,2-dihydroisoquinoline-3-yl)ethylamino)-3-ethyl-2,3-dihydropyrimido[4,5-d]pyrimidine-4(1H)-one], the IC50 in assay [1] is greater than 500 nM; in assay [2], 10 to 500 nM; at PI3 Kinase (p120γ) (h), 10 to 500 nM; in assay [3] it was greater than 500 nM.

In the case of `CCCN1CNc2ncnc(N[C@@H](C)c3cc4cccc(Cl)c4c(=O)n3-c3ccccc3)c2C1=O` [Example 61, (S)-5-(1-(8-chloro-1-oxo-2-phenyl-1,2-dihydroisoquinoline-3-yl)ethylamino)-3-propyl-2,3-dihydropyrimido[4,5-d]pyrimidine-4(1H)-one], the IC50 (in assay [1]; in assay [2]; against PI3 Kinase (p120γ) (h); in assay [3]) was greater than 500 nM in each case.

For the molecule `C[C@H](Nc1ncnc2c1C(=O)N(C1CC1)CN2)c1cc2cccc(Cl)c2c(=O)n1-c1ccccc1` [Example 62, (S)-5-(1-(8-chloro-1-oxo-2-phenyl-1,2-dihydroisoquinoline-3-yl)ethylamino)-3-cyclopropyl-2,3-dihydropyrimido[4,5-d]pyrimidine-4(1H)-one], the IC50 (in assay [1]; in assay [2]; at PI3 Kinase (p120γ) (h); in assay [3]) was greater than 500 nM in each case.
